Measurements reported in publication PMC10005967, “Discriminative binding of tau PET tracers PI2620, MK6240 and RO948 in Alzheimer’s disease, corticobasal degeneration and progressive supranuclear palsy brains” (Molecular Psychiatry, 2022).
Values joined by “and” are separate entries in the source; they are usually repeats but may differ in a detail not shown here. Equal entries are not always repeated. Where two headings read alike, the source gives them in different places.

How the values were obtained:
[1] = molecular target: tau, AD FC brain homogenates (Homo sapiens, UniProt P10636); assay: ^3H-PI2620 competitive binding assay in AD frontal cortex brain homogenates; settings: for proportion of HA binding sites / proportion of SHA binding sites: vs 0.6 nM ^3H-PI2620; for IC50: vs 0.6 nM ^3H-PI2620, 2-site competition model
Sequence of tau, AD FC brain homogenates (P10636 623-708 limits assumed): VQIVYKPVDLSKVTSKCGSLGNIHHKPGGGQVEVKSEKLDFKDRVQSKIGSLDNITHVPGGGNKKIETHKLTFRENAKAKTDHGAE
Description: (§1) Frozen human brain tissue from eleven AD, five CBD, four PSP and eight control patients was provided by the Netherlands Brain Bank (Amsterdam, Netherlands). Frozen human brain tissue from PSP case number 26 was provided by Professor Bernadino Ghetti, the Neuropathology of Dementia Laboratory, Indiana University School of Medicine (Indianapolis, IN, USA) (see Table 1 for demographic data). Brain homogenates were prepared by homogenising the brain tissue in phosphate buffer saline (PBS; pH 7.4) containing 0.1% BSA (250 mg tissue/mL) and protease/phosphatase inhibitors (10 μL/mL); aliquots were stored at −80 °C until used in the binding experiments.
Competitive binding assays on four AD FC brain homogenates [two early-onset (EO) AD and two late-onset (LO) AD; 0.5 mg tissue] were performed using 0.6 nM of ^3H-PI2620 and increasing concentrations (1 × 10^−18 M to 1 × 10^−6 M) of unlabelled PI2620, unlabelled MK6240 and unlabelled RO948 for 2 h at RT. The binding assay was accomplished as described above. The half-maximal inhibitory concentration (IC50) was measured using the 2-site competition model in GraphPad Prism 9 software.

[2] = tested on: tau, AD brain homogenates; settings: cited from earlier work; for high-affinity (HA) binding site: AD brain homogenates
[3] = molecular target: tau, CBD FC homogenates (Homo sapiens, UniProt P10636); assay: ^3H-PI2620 competitive binding assay in CBD frontal cortex brain homogenates
Sequence of tau, CBD FC homogenates (P10636 561-697 limits assumed): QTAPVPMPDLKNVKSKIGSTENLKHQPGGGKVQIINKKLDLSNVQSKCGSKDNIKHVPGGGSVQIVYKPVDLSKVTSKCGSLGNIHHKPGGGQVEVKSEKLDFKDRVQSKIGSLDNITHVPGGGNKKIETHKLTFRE
Description: as §1
(§2) Competitive binding assays were also carried out under the same conditions, on three PSP FC homogenates and three CBD FC homogenates using 0.6 nM and 1 nM of ^3H-PI2620, respectively, in the presence of increasing concentrations of unlabelled PI2620 (1 × 10^−18 M to 1 × 10^−6 M). The 2-site competition model in GraphPad Prism 9 software was used to plot the AD, CBD, and PSP data.

[4] = molecular target: tau, PSP FC homogenates (Homo sapiens, UniProt P10636); assay: ^3H-PI2620 competitive binding assay in PSP frontal cortex brain homogenates; settings: vs 0.6 nM ^3H-PI2620, only one binding site
Sequence of tau, PSP FC homogenates (P10636 561-698 limits assumed): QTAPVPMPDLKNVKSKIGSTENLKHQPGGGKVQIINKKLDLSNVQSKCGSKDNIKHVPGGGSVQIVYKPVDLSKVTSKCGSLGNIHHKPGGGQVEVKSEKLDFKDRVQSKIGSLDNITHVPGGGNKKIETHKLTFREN
Description: as §1, §2

[5] = tested on: tau, post-mortem PSP brain tissue; settings: cited from earlier work
[6] = read-out: IC50(1), super-high affinity (SHA) site
[7] = read-out: IC50(2), high affinity (HA) site

proportion of HA binding sites [1]	proportion of SHA binding sites [1]	IC50 [1, 6] [nM]	IC50 [1, 7] [nM]	proportion of HA binding sites ([3]; vs 1 nM ^3H-PI2620) [%]	proportion of SHA binding sites ([3]; vs 1 nM ^3H-PI2620) [%]	IC50 ([3]; vs 1 nM ^3H-PI2620, read-out: IC50(1), SHA site) [nM]	IC50 ([3]; vs 1 nM ^3H-PI2620, read-out: IC50(2), HA site) [nM]	IC50 [4] [nM]	Structure (SMILES)	high-affinity (HA) binding site [2] [nM]	HA site ([2]; AD hippocampus, ^3H-MK6240) [nM]	super-high affinity (SHA) site ([2]; AD hippocampus, ^3H-MK6240) [pM]	proportion of HA site ([2]; AD hippocampus) [%]	proportion of SHA site ([2]; AD hippocampus) [%]	in vitro binding using autoradiography [5]
> 70% and 76%	> 20% and 24%	0.0027	4.5	–	–	–	–	–	Nc1c(F)ccc2cnc(-n3ccc4ccncc43)cc12 [MK6240]	0.15 to 0.32	12	1	42	58	–
> 70% and 77%	> 20% and 23%	0.0081	4.9	54	46	0.0056	7.7	2.5	Fc1cc(-c2ccc3c(n2)[nH]c2ccncc23)ccn1 [PI2620]	8.5	–	–	–	–	–
> 70% and 79%	> 20% and 21%	0.0058	6.8	–	–	–	–	–	Fc1ccc(-c2ccc3c(n2)[nH]c2cnccc23)cn1 [RO948]	18	–	–	–	–	–
–	–	–	–	–	–	–	–	–	Fc1ccc(-c2ccc3c(c2)[nH]c2ccncc23)cn1 [^18F-AV-1451]	–	–	–	–	–	no in vitro binding
